Experiments:
[1] = tested on: carrageenan paw edema in the rat; assay: Rat carrageenan edema; format: in vivo, rat (male Sprague-Dawley); conditions: 1 h before carrageenan, edema at 3 h, *p ≤ 0.01 from control
Method: (§1) The antiinflammatory utility of the compounds of this invention was established by standard procedures for evaluating antiinflammatory agents, namely, carrageenan paw edema in the rat and adjuvant arthritis (polyarthritis) in the rat. These procedures and the results obtained are summarized below:
(§2) Groups of 6 male Sprague-Dawley rats (Honey Brook), weighing between 140-160 g were used in these experiments. Drugs were administered p.o. in 0.5% methylcellulose (400 centipoise). One hour after administering drugs or vehicle, 0.1 ml of 1% carrageenan was injected subplantar into the right hind paw. Right paw volumes were measured prior to carrageenan injection in milliliters using a mercury plethysmograph (i.e., zero time reading). After 3 hours, right paw volumes were remeasured and paw edema was calculated for each rat by subtracting the zero time reading from the 3 hour reading. Percent change in paw edema was calculated.

[2] = tested on: adjuvant arthritis (polyarthritis) in the rat; assay: Rat adjuvant arthritis; format: in vivo, rat (male Lewis); conditions: oral dose 150 mg/kg, days 0 to 15 except weekends; *p ≤ 0.01 from control
Method: as §1
(§3) Groups of 10 male Lewis rats (Charles River), weighing between 150-170 g were injected s.c. into the right paw with desiccated Mycobacterium butyricum (0.5 mg/0.1 ml) suspended in light mineral oil. Drugs were administered orally in 0.5% methylcellulose. The following dosing regimen was used: days 0 to 15 except for weekends. Both hind paw volumes, in milliliters, were measured by mercury plethysmography at the time of injection of the complete adjuvant (day 0). Paw volumes were measured on day 4 (injected paw only) and on day 16 (uninjected paw). Drug effects were expressed as percentage change from arthritic controls.

[3] = tested on: inflammation; assay: Antiinflammatory activity overall (standard procedures: carrageenan paw edema and adjuvant arthritis in the rat); format: in vivo; conditions: compared with oxaprozin
Method: as §1, §2
as §3, with “Drugs were administered orally in 0.5% methylcellulose. The following dosing regimen was used: days 0 to 15 except for weekends.” left out, “Drug effects were expressed as percentage change from arthritic controls.” left out

Compound	% Inhibition of control paw edema ([1]; oral dose 150 mg/kg) [%]	% Inhibition of control uninjected paw edema at day 16 [2] [%]	effectiveness in inhibiting inflammation [3]	% Inhibition of control paw edema ([1]; oral dose 200 mg/kg) [%]
O=C(O)CCc1nc(-c2ccccc2)c(-c2ccc(O)cc2)o1 [Example 1, 5-(4-hydroxyphenyl)-4-phenyl-2-oxazolepropanoic acid]	43	36	as effective as oxaprozin in inhibiting inflammation	
O=C(O)CCc1nc(-c2ccc(O)cc2)c(-c2ccccc2)o1 [Example 2, 4-(4-Hydroxyphenyl)-5-phenyl-2-oxazolepropanoic acid]	46	30	as effective as oxaprozin in inhibiting inflammation	
O=C(O)CCc1nc(-c2ccccc2)c(-c2ccccc2)o1 [Oxaprozin, 4,5-diphenyl-2-oxazolepropanoic acid, reference compound]		25		51

— patent publication US4659728A, “Hydroxy substituted 4,5-diphenyl-2-oxazole propanoic acid” (American Home Products Corporation, priority 1985, dated 1987)
